For one experiment, the target named is Lck (h) (Homo sapiens, UniProt P06239). Description: Lck Human  Kinase Enzymatic Radiometric Assay. The experiment is classed as biochemical. Particulars: read-out: Lck IC50 nM Range*. A digest of the protocol:
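Substrate 33P-incorporation measured by scintillation counting after spotting on P30 filtermat and phosphoric acid washes. Human Lck reacted 40 min at RT in 50 mM Tris pH 7.5 with 10 mM MgAcetate, [gamma-33P]-ATP, 250 uM Cdc2 peptide, 0.1 mM EGTA and 0.1 mM Na3VO4.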

Experiment [1] has as its target T1, Recombinant (1-346) HPK1 (h) (Homo sapiens, UniProt Q92918).
T1 construct: Recombinant (1-346) HPK1 (h) is incubated with 8 mM MOPS pH 7.0
T1 sequence (Q92918 1-346): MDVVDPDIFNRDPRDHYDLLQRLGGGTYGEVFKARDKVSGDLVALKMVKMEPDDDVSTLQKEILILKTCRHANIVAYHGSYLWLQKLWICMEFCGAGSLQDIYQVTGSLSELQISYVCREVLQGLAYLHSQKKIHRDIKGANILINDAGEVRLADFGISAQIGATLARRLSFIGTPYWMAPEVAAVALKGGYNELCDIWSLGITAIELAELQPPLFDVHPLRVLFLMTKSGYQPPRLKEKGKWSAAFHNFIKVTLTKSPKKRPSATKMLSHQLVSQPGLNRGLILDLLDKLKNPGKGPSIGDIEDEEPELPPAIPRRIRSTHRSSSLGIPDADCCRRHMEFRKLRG
Description: HPK1 Human STE Kinase Enzymatic Radiometric Assay. The format is biochemical. The settings on record: read-out: HPK1 IC50 nM Range*. On the procedure: A stock solution of 10 mM of test compound is prepared in DMSO. The compound plate was prepared by 3-fold and 9-point serial dilutions. […] The reaction is initiated by The addition of the Mg/ATP mix. After incubation for 40 minutes at RT, the reaction is stopped by the addition of phosphoric acid to a concentration of 0.5%.

Where only a bound is given, the exact number is not on record here.

Lck (h), sequence (P06239 whole entry): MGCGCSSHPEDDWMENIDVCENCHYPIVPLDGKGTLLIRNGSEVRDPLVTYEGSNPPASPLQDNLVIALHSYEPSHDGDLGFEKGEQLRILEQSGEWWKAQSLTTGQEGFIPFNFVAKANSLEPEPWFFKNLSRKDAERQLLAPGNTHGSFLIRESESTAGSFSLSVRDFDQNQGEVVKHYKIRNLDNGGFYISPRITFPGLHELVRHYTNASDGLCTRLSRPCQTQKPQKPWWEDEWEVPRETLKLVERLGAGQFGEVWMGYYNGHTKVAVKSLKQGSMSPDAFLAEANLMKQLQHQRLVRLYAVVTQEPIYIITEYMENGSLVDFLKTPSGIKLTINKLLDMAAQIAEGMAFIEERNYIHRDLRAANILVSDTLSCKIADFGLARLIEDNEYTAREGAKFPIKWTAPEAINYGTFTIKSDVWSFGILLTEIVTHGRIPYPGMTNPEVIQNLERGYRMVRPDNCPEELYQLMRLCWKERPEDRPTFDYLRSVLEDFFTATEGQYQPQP

For `CC(C)N1CCC(Oc2ccc(-c3cc(-c4ccc5c(c4)CCNC5=O)c(N)nc3F)cc2C#N)CC1` [I-224, 5-(6-amino-2-fluoro-5-(1-oxo-1,2,3,4-tetrahydroisoquinolin-6-yl)pyridin-3-yl)-2-((1-isopropylpiperidin-4-yl)oxy)benzonitrile], the figures for the IC50 (at Lck (h); in experiment [1]) were above 1000 nM and 0.1 to 10 nM, respectively.
For `CCN1CC=C(c2ccc(-c3cc(-c4ccc5c(c4)CCNC5=O)c(N)nc3F)cc2)C1` [I-120, 6-(2-amino-5-(4-(1-ethyl-2,5-dihydro-1H-pyrrol-3-yl)phenyl)-6-fluoropyridin-3-yl)-3,4-dihydroisoquinolin-1(2H)-one], in that order: above 1000 nM and 0.1 to 10 nM.
For `Nc1nc(F)c(-c2ccc(S(=O)(=O)N3CCCC3)cc2)cc1-c1ccc2c(c1)CCNC2=O` [I-99, 6-(2-amino-6-fluoro-5-(4-(pyrrolidin-1-ylsulfonyl)phenyl)pyridin-3-yl)-3,4-dihydroisoquinolin-1(2H)-one], in that order: above 1000 nM and 11 to 100 nM.
The matching figures for `Nc1nc(F)c(-c2ccc(C3CCCCN3CC(F)F)cc2)cc1-c1ccc2c(c1)CCNC2=O` (centres unmarked) [I-101, 6-(2-amino-5-(4-(1-(2,2-difluoroethyl)piperidin-2-yl)phenyl)-6-fluoropyridin-3-yl)-3,4-dihydroisoquinolin-1(2H)-one]: above 1000 nM and 11 to 100 nM.
With `CN1CCN(C2(c3ccc(-c4cc(-c5ccc6c(c5)CCNC6=O)c(N)nc4F)cc3)CC2)CC1` [I-260, 6-(2-amino-6-fluoro-5-(4-(1-(4-methylpiperazin-1-yl)cyclopropyl)phenyl)pyridin-3-yl)-3,4-dihydroisoquinolin-1(2H)-one], the concentration for half-maximal inhibition (IC50) (commonly the concentration that inhibits the measured activity by half) is above 1000 nM on Lck (h) and 11 to 100 nM in experiment [1].
For `CC(C)N1CCN(c2ccc(-c3cc(-c4ccc5c(=O)[nH]cnc5c4)c(N)nc3F)cc2)CC1` [I-362, 7-(2-amino-6-fluoro-5-(4-(4-isopropylpiperazin-1-yl)phenyl)pyridin-3-yl)quinazolin-4(3H)-one], in that order: above 1000 nM and 0.1 to 10 nM.
`C[C@@H]1CN(c2ccc(-c3cc(-c4ccc5c(c4)CCNC5=O)c(N)nc3F)cc2)C[C@H](C)N1` [I-319, 6-(2-amino-5-(4-((3R,5S)-3,5-dimethylpiperazin-1-yl)phenyl)-6-fluoropyridin-3-yl)-3,4-dihydroisoquinolin-1(2H)-one]: the IC50 on Lck (h) was above 1000 nM; in experiment [1] it was 0.1 to 10 nM.
For `Nc1nc(F)c(-c2ccc(N3CCN(CC4CC4)CC3)cc2)cc1-c1ccc2c(=O)[nH]cc(F)c2c1` [I-455, 6-(2-amino-5-(4-(4-(cyclopropylmethyl)piperazin-1-yl)phenyl)-6-fluoropyridin-3-yl)-4-fluoroisoquinolin-1(2H)-one], in that order: above 1000 nM and 0.1 to 10 nM.
The matching figures for `CC(C)N1CCC(c2ccc(-c3cc(-c4ccc5c(c4)CCNC5=O)c(N)nc3F)cc2)CC1` [I-79, 6-(2-amino-6-fluoro-5-(4-(1-isopropylpiperidin-4-yl)phenyl)pyridin-3-yl)-3,4-dihydroisoquinolin-1(2H)-one]: above 1000 nM and 0.1 to 10 nM.
The matching figures for `CN(C)Cc1nc(-c2cc(-c3cc4c(cc3F)C(=O)NCC4)c(N)nc2F)ccc1N1CCOCC1` [I-427, 6-(6′-amino-6-((dimethylamino)methyl)-2′-fluoro-5-morpholino-[2,3-bipyridin]-5′-yl)-7-fluoro-3,4-dihydroisaoquinolin-1(2H)-one]: above 1000 nM and 0.1 to 10 nM.
`COCCN1CCN(c2ccc(-c3cc(-c4cc5c(cc4F)C(=O)NCC5)c(N)nc3F)cc2)CC1` [I-212, 6-(2-amino-6-fluoro-5-(4-(4-(2-methoxyethyl)piperazin-1-yl)phenyl)pyridin-3-yl)-7-fluoro-3,4-dihydroisoquinolin-1(2H)-one]: the IC50 at Lck (h) is above 1000 nM; in experiment [1], 0.1 to 10 nM.
The matching figures for `CC(=O)N1CCC(Oc2ccc(-c3cc(-c4ccc5c(c4)CCNC5=O)c(N)nc3F)cc2F)CC1` [I-290, 6-(5-(4-((1-acetylpiperidin-4-yl)oxy)-3-fluorophenyl)-2-amino-6-fluoropyridin-3-yl)-3,4-dihydroisoquinolin-1(2H)-one]: 0.1 to 10 nM and 0.1 to 10 nM.
For `Nc1nc(F)c(-c2ccc(C3CN(CC(F)(F)F)CCO3)cc2)cc1-c1ccc2c(c1)CCNC2=O` (centres unmarked) [I-90, 6-(2-amino-6-fluoro-5-(4-(4-(2,2,2-trifluoroethyl)morpholin-2-yl)phenyl)pyridin-3-yl)-3,4-dihydroisoquinolin-1(2H)-one], in that order: above 1000 nM and 11 to 100 nM.
Regarding `CN1CCN(c2ccc(-c3cc(-c4ccc5c(c4)C(C)(C)NC5=O)c(N)nc3F)cc2)CC1` [I-33, 5-(2-amino-6-fluoro-5-(4-(4-Methylpiperazin-1-yl)phenyl)pyridin-3-yl)-3,3-dimethylisoindolin-1-one], the values for the half-inhibitory concentration (IC50) (at Lck (h); in experiment [1]) were above 1000 nM and 0.1 to 10 nM, respectively.
Take `CC(C)N1CCN(c2ccc(-c3cc(-c4cc(F)c5c(c4)CCNC5=O)c(N)nc3F)cc2F)CC1` [I-386, 6-(2-amino-6-fluoro-5-(3-fluoro-4-(4-isopropylpiperazin-1-yl)phenyl)pyridin-3-yl)-8-fluoro-3,4-dihydroisoquinolin-1(2H)-one]: the IC50 (on Lck (h); in experiment [1]) was 0.1 to 10 nM throughout.
As to `COCCN1CCC2(CC1)OCc1cc(-c3cc(-c4ccc5c(c4)CCNC5=O)c(N)nc3F)ccc1O2` [I-214, 6-(2-amino-6-fluoro-5-(1′-(2-methoxyethyl)-4H-spiro[benzo[d][1,3]dioxine-2,4′-piperidin]-6-yl)pyridin-3-yl)-3,4-dihydroisoquinolin-1(2H)-one], the values for the half-inhibitory concentration (IC50) (on Lck (h); in experiment [1]) were above 1000 nM and 0.1 to 10 nM, respectively.
The matching figures for `COCCN(C)[C@@H]1CCN(c2ccc(-c3cc(-c4ccc5c(c4)CCNC5=O)c(N)nc3F)cc2)C1` [I-160, (R)-6-(2-amino-6-fluoro-5-(4-(3-((2-methoxyethyl)(methyl)amino)pyrrolidin-1-yl)phenyl)pyridin-3-yl)-3,4-dihydroisoquinolin-1(2H)-one]: above 1000 nM and 0.1 to 10 nM.
As for `CC(C)[C@H]1CN(c2ccc(-c3cc(-c4ccc5c(c4)CCNC5=O)c(N)nc3F)c(F)c2)CCO1` [I-12, (S)-6-(2-amino-6-fluoro-5-(2-fluoro-4-(2-isopropylmorpholino)phenyl)pyridin-3-yl)-3,4-dihydroisoquinolin-1(2H)-one], the results for the 50% inhibitory concentration (IC50) (on Lck (h); in experiment [1]) were above 1000 nM and 11 to 100 nM, respectively.
The matching figures for `CC(C)[C@H]1CN(c2ccc(-c3cc(-c4cc5c(cn4)C(=O)NCC5)c(N)nc3F)cc2)CCO1` [I-77, (S)-6-(2-amino-6-fluoro-5-(4-(2-isopropylmorpholino)phenyl)pyridin-3-yl)-3,4-dihydro-2,7-naphthyridin-1(2H)-one 2,2,2-trifluoroacetate]: above 1000 nM and 0.1 to 10 nM.
For `Nc1nc(F)c(-c2ccc(C3=CCN(CCO)CC3)cc2)cc1-c1ccc2c(c1)CCNC2=O` [I-138, 6-(2-amino-6-fluoro-5-(4-(1-(2-hydroxyethyl)-1,2,3,6-tetrahydropyridin-4-yl)phenyl)pyridin-3-yl)-3,4-dihydroisoquinolin-1(2H)-one], the half-inhibitory concentration (IC50) at Lck (h) is above 1000 nM; in experiment [1] it was 0.1 to 10 nM.
For `CC(C)CN(C)C1CCN(c2ccc(-c3cc(-c4ccc5c(c4)CCNC5=O)c(N)nc3F)cc2)C1` (centres unmarked) [I-162, 6-(2-amino-6-fluoro-5-(4-(3-(isobutyl(methyl)amino)pyrrolidin-1-yl)phenyl)pyridin-3-yl)-3,4-dihydroisoquinolin-1(2H)-one], in that order: above 1000 nM and 0.1 to 10 nM.
For `CC(C)N1CCC(Oc2ccc(-c3cc(-c4cc5c(cc4F)C(=O)NCC5)c(N)nc3F)cc2C#N)CC1` [I-292, 5-(6-amino-2-fluoro-5-(7-fluoro-1-oxo-1,2,3,4-tetrahydroisoquinolin-6-yl)pyridin-3-yl)-2-((1-isopropylpiperidin-4-yl)oxy)benzonitrile], in that order: above 1000 nM and 0.1 to 10 nM.
For `Nc1nc(F)c(-c2ccc(N3CCN(CC4CC4)CC3)cc2)cc1-c1cc(F)c2c(=O)[nH]cnc2c1` [I-407, 7-(2-amino-5-(4-(4-(cyclopropylmethyl)piper-azin-1-yl)phenyl)-6-fluoropyridin-3-yl)-5-fluoroquinazolin-4(3H)-one], in that order: above 1000 nM and 0.1 to 10 nM.
Consider `Nc1nc(F)c(-c2ccc(N3CCS(=O)(=O)CC3)cc2)cc1-c1cc(F)c2c(c1)CCNC2=O` [I-359, 6-(2-amino-5-(4-(1,1-dioxidothiomorpholino)phenyl)-6-fluoropyridin-3-yl)-8-fluoro-3,4-dihydroisoquinolin-1(2H)-one], for which the half-maximal inhibitory concentration (IC50) on Lck (h) was above 1000 nM; in experiment [1], 0.1 to 10 nM.
The matching figures for `CS(=O)(=O)[C@H]1CCN(c2ccc(-c3cc(-c4ccc5c(c4)CCNC5=O)c(N)nc3F)cc2)C1` [I-117, (S)-6-(2-amino-6-fluoro-5-(4-(3-(methylsulfonyl)pyrrolidin-1-yl)phenyl)pyridin-3-yl)-3,4-dihydroisoquinolin-1(2H)-one]: above 1000 nM and 0.1 to 10 nM.
